# According to patent US12466820B2, “Amino quinazoline derivatives as P2X3 inhibitors” (CHIESI FARMACEUTICI S.p.A., priority 2019, dated 2025):
# Where a name gives a salt, the structure may show the parent alone.
# Biological target: T1, h P2X3 (Homo sapiens, UniProt P56373)
# T1 sequence (P56373 1-397): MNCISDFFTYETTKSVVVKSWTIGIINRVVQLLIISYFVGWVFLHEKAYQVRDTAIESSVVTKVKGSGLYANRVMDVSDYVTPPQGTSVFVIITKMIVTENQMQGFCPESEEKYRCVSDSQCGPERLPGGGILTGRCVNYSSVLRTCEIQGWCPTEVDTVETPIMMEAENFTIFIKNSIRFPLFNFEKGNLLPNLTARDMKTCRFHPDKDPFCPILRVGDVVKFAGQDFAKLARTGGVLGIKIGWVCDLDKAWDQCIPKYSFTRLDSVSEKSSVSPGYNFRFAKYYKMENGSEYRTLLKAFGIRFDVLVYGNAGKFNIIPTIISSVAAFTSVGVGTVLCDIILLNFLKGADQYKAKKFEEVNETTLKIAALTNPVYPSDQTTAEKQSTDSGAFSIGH
# Assay: In vitro electrophysiology assay for P2X3 (automated whole-cell patch clamp, Sophion Qube)
# Type: cell-based
# Conditions: range of activity; for IC50: Table 6, inhibition of P2X3 current, agonist α,β-MeATP (800 nM)
# Method: Pharmacological Activity of the Compounds of the Invention In Vitro Electrophysiology Assay for P2X3
# Cells expressing P2X3 receptors were grown according to standard practice and maintained at 37° C. in a 5% humidified CO2 atmosphere. The cells were seeded into T175 flask 2 days prior to the day of the assay and dissociated from the flasks using TrypLE when grown to confluence of 80-90%. The dissociated cells were resuspended in serum free media at a cell density of 3×10^6 cells/ml and loaded onto the Sophion Qube automated patch-clamp system. The extracellular assay buffer contained 145 mM NaCl, 4 mM KCl, 2 mM CaCl2), 1 mM MgCl2, 10 mM HEPES, and 10 mM glucose at pH 7.4. The intracellular assay solution contained 140 mM CsF, 10 mM NaCl, 10 mM EGTA, 10 mM HEPES at pH 7.2. Agonist stock solutions were prepared in H2O and diluted in bath solution prior to use. All antagonists were prepared as 10 mM stock solutions in DMSO and diluted in bath solution prior to use. All experiments were performed under the whole-cell patch clamp configuration at room temperature with 384 individual cells being voltage clamped at −60 mV simultaneously on the Sophion Qube instrument. Two baseline responses were established with the application of α,β-MeATP (800 nM), with the subsequent agonist applications being washed out using extracellular assay buffer containing 0.5 U/ml apyrase. Following the second agonist application, antagonist was incubated in the absence of α,β-MeATP for 10 minutes. After antagonist preincubation, 800 nM α,β-MeATP and antagonist were co-administered to determine the inhibitory effect of the antagonist. One concentration of an antagonist was assessed against a single cell, with different concentrations of the antagonist applied to other cells on the 384 recording substrate. The control P2X3 current amplitude was taken from the peak current amplitude from the second agonist response prior to preincubation with antagonist. The peak P2X3 current amplitude in the presence of antagonist was used to calculate the inhibitory effect at each concentration of the antagonist according to the following equation: […]
# Concentration-response curves were constructed from ten different concentrations with each concentration of antagonist tested on at least two individual cells. The concentration of the antagonist to inhibit P2X3 current by 50% (IC50) was determined by fitting the data with the following equation: […]
# Where ‘a’ is minimum response, ‘b’ is maximum response, ‘c’ is IC50 and ‘d’ is Hill slope.
# The results for individual compounds are provided below in Table 6 and are expressed as range of activity.
# The activity of the comparative examples A and B have been tested in the in vitro Electrophysiology Assay for P2X3 as described above.
Compound,IC50 [µM],"h P2X3 (inhibition of P2X3 current evoked by 800 nM α,β-MeATP, 10 min antagonist preincubation, comparative examples)"
"COc1cc(-c2ncc(C)cn2)cc2c(NC(C)c3nc(-c4ccncc4)no3)ncnc12 (stereo not drawn) [Example 6, 8-methoxy-6-(5-methylpyrimidin-2-yl)-N-(1-(3-(pyridin-4-yl)-1,2,4-oxadiazol-5-yl)ethyl)quinazolin-4-amine]",0.316 to 3.16,–
"COc1cc(-c2ccc(F)cn2)cc2c(NCc3cc(C)no3)ncnc12 [Example 135, 6-(5-fluoropyridin-2-yl)-8-methoxy-N-((3-methylisoxazol-5-yl)methyl)quinazolin-4-amine]",0.316 to 3.16,–
"Cc1nc([C@@H](C)Nc2ncnc3c(OC4CCOCC4)cc(-c4ccc(F)cn4)cc23)no1 [Example 82, 6-(5-fluoro-2-pyridyl)-N-[(1R)-1-(5-methyl-1,2,4-oxadiazol-3-yl)ethyl]-8-tetrahydropyran-4-yloxy-quinazolin-4-amine]",< 0.316,–
"Cc1nnc([C@@H](C)Nc2ncnc3c(S(=O)(=O)N(C)C)cc(-c4ccc(F)cc4)cc23)s1 (stereo in doubt) [Example 12, 6-(4-fluorophenyl)-N,N-dimethyl-4-((1-(5-methyl-1,3,4-thiadiazol-2-yl)ethyl)amino)quinazoline-8-sulfonamide]",< 0.316,–
"COc1cc(-c2ncc(C)s2)cc2c(NC(C)c3nnc(C)s3)ncnc12 (stereo not drawn) [Example 106, 8-methoxy-N-(1-(5-methyl-1,3,4-thiadiazol-2-yl)ethyl)-6-(5-methylthiazol-2-yl)quinazolin-4-amine]",< 0.316,–
"COc1cc(-c2ncc(C)s2)cc2c(NC(C)c3nnc(C)s3)ncnc12 (single isomer, unassigned) [Example 164, 8-methoxy-N-(1-(5-methyl-1,3,4-thiadiazol-2-yl)ethyl)-6-(5-methylthiazol-2-yl)quinazolin-4-amine]",0.316 to 3.16,–
"COc1cc(-n2cc(Cl)cn2)cc2c(N[C@H](C)c3cnc(C(F)(F)F)nc3)ncnc12 [Example 104, (R)-6-(4-chloro-1H-pyrazol-1-yl)-8-methoxy-N-(1-(2-(trifluoromethyl)pyrimidin-5-yl)ethyl)quinazolin-4-amine]",< 0.316,–
"COc1cc(-c2ccc(F)cc2)cc2c(NC(C)c3nc(-c4ccncc4)no3)ncnc12 (single isomer, unassigned) [Example 192, 6-(4-fluorophenyl)-8-methoxy-N-(1-(3-(pyridin-4-yl)-1,2,4-oxadiazol-5-yl)ethyl)quinazolin-4-amine]",3.16 to 31.6,–
"COc1cc(-n2nccc2C)cc2c(N[C@H](C)c3ccc(C)nn3)ncnc12 [Example 102, (R)-8-methoxy-6-(5-methyl-1H-pyrazol-1-yl)-N-(1-(6-methylpyridazin-3-yl)ethyl)quinazolin-4-amine]",3.16 to 31.6,–
"COc1cc(-c2ccc(F)cn2)cc2c(NCc3cc(C)on3)ncnc12 [Example 138, 6-(5-fluoro-2-pyridyl)-8-methoxy-N-[(5-methylisoxazol-3-yl)methyl]quinazolin-4-amine]",0.316 to 3.16,–
"COc1cc(-c2ccc(F)cn2)cc2c(NCc3nc(C)no3)ncnc12 [Example 133, 6-(5-fluoropyridin-2-yl)-8-methoxy-N-((3-methyl-1,2,4-oxadiazol-5-yl)methyl)quinazolin-4-amine]",0.316 to 3.16,–
"Cc1ccc(COc2ncnc3ncc(-c4ccc(F)cc4)cc23)cn1 [Comparative Example A, 6-(4-fluorophenyl)-4-[(6-methyl-3-pyridyl)methoxy]pyrido[2,3-d]pyrimidine, reference compound]",–,inactive
"COc1cc(-n2ccc(C)n2)cc2c(N[C@H](C)c3ccc(C)nn3)ncnc12 [Example 103, (R)-8-methoxy-6-(3-methyl-1H-pyrazol-1-yl)-N-(1-(6-methylpyridazin-3-yl)ethyl)quinazolin-4-amine]",0.316 to 3.16,–
"COc1cc(-c2ccc(F)cn2)cc2c(NCc3cc[nH]c(=O)c3)ncnc12 [Example 148, 4-(((6-(5-fluoropyridin-2-yl)-8-methoxyquinazolin-4-yl)amino)methyl)pyridin-2(1H)-one]",0.316 to 3.16,–
"COc1cc(-c2ncc(C)cn2)cc2c(NC(C)c3nc(-c4ccncc4)no3)ncnc12 (single isomer, unassigned) [Example 167, 8-methoxy-6-(5-methylpyrimidin-2-yl)-N-(1-(3-(pyridin-4-yl)-1,2,4-oxadiazol-5-yl)ethyl)quinazolin-4-amine]",0.316 to 3.16,–
"Cc1ccc(CNc2ncnc3c(OC4COC4)cc(-c4ccc(F)cc4)cc23)nn1 [Example 74, 6-(4-fluorophenyl)-N-((6-methylpyridazin-3-yl)methyl)-8-(oxetan-3-yloxy)quinazolin-4-amine]",3.16 to 31.6,–
"COc1cc(-c2ccc(F)cn2)cc2c(NC(C)c3nc(C)no3)ncnc12 (single isomer, unassigned) [Example 175, 6-(5-fluoropyridin-2-yl)-8-methoxy-N-(1-(3-methyl-1,2,4-oxadiazol-5-yl)ethyl)quinazolin-4-amine]",0.316 to 3.16,–
"Cc1ccc(-c2cc(OC3CCOCC3)c3ncnc(NC(C)c4nnc(C)s4)c3c2)nc1 (single isomer, unassigned) [Example 84, 6-(5-methyl-2-pyridyl)-N-[1-(5-methyl-1,3,4-thiadiazol-2-yl)ethyl]-8-tetrahydropyran-4-yloxy-quinazolin-4-amine]",< 0.316,–
"COc1cc(-c2ncc(C)cn2)cc2c(NCC(=O)N3CCOCC3)ncnc12 [Example 160, 2-((8-methoxy-6-(5-methylpyrimidin-2-yl)quinazolin-4-yl)amino)-1-morpholinoethan-1-one]",3.16 to 31.6,–
"COc1cc(-c2ccc(F)cc2)cc2c(N[C@@H](C)c3cnc(C(F)(F)F)nc3)ncnc12 [Example 185, 6-(4-fluorophenyl)-8-methoxy-N-[(1S)-1-[2-(trifluoromethyl)pyrimidin-5-yl]ethyl]quinazolin-4-amine formate]",< 0.316,–
"COc1cc(-c2ccc(F)cc2)cc2c(NCc3ccc(F)cn3)ncnc12 [Example 161, 6-(4-Fluorophenyl)-N-[(5-fluoro-2-pyridyl)methyl]-8-methoxy-quinazolin-4-amine]",0.316 to 3.16,–
"COc1cc(-n2cc(F)cn2)cc2c(N[C@H](C)c3ccc(C)nn3)ncnc12 [Example 98, (R)-6-(4-fluoro-1H-pyrazol-1-yl)-8-methoxy-N-(1-(6-methylpyridazin-3-yl)ethyl)quinazolin-4-amine]",0.316 to 3.16,–
"COc1cc(-n2cc(Cl)cn2)cc2c(N[C@H](C)c3ccc(C)nn3)ncnc12 [Example 100, (R)-6-(4-chloro-1H-pyrazol-1-yl)-8-methoxy-N-(1-(6-methylpyridazin-3-yl)ethyl)quinazolin-4-amine]",< 0.316,–
"COc1cc(-c2ncc(F)cn2)cc2c(NC(C)c3nc(C)no3)ncnc12 (stereo not drawn) [Example 3, 6-(5-fluoropyrimidin-2-yl)-8-methoxy-N-(1-(3-methyl-1,2,4-oxadiazol-5-yl)ethyl)quinazolin-4-amine]",0.316 to 3.16,–
"C[C@@H](Nc1ncnc2c(C3CCOCC3)cc(-c3ccc(F)cc3)cc12)c1cnc(C(F)(F)F)nc1 [Example 26, (R)-6-(4-fluorophenyl)-8-(tetrahydro-2H-pyran-4-yl)-N-(1-(2-(trifluoromethyl)pyrimidin-5-yl)ethyl)quinazolin-4-amine]",0.316 to 3.16,–
"COc1cc(-c2ccc(C)cn2)cc2c(NCc3ccn(C)n3)ncnc12 [Example 141, 8-methoxy-N-[(1-methylpyrazol-3-yl)methyl]-6-(5-methyl-2-pyridyl)quinazolin-4-amine]",0.316 to 3.16,–
"COc1cc(-n2cc(F)cn2)cc2c(N[C@H](C)c3cnc(C(F)(F)F)nc3)ncnc12 [Example 97, (R)-6-(4-fluoro-1H-pyrazol-1-yl)-8-methoxy-N-(1-(2-(trifluoromethyl)pyrimidin-5-yl)ethyl)quinazolin-4-amine]",0.316 to 3.16,–
